Laboratory results from ChEMBL document CHEMBL1781990, “Synthesis and pharmacological activity of O-aminoalkyl derivatives of 7-hydroxycoumarin” (2011).
≈ marks a conversion by molar mass, not a printed value. Calls of active or inactive are those of the source. No cut-off for these calls is given here.

Experiments:
CCRF-CEM = assay: Cytotoxicity against human CCRF-CEM cells assessed as cell growth inhibition at 10^-5 M; assay type: functional, cell-based
HOP-92 = assay: Cytotoxicity against human HOP92 cells assessed as cell growth inhibition at 10^-5 M; assay type: functional, cell-based
HCC 2998 = assay: Cytotoxicity against human HCC2998 cells assessed as cell growth inhibition at 10^-5 M; assay type: functional, cell-based
Micrococcus luteus = assay: Antibacterial against Micrococcus luteus ATCC 9341 after 24 hrs by NCCLS M7-A6 method; assay type: functional; details: Micrococcus luteus, ATCC 9341, 24 h; read-out: MIC
Bacillus subtilis = assay: Antibacterial against Bacillus subtilis ATCC 6633 after 24 hrs by NCCLS M7-A6 method; assay type: functional; details: Bacillus subtilis, ATCC 6633, 24 h; read-out: MIC
Bacillus cereus = assay: Antibacterial against Bacillus cereus ATCC 11778 after 24 hrs by NCCLS M7-A6 method; assay type: functional; details: Bacillus cereus, ATCC 11778, 24 h; read-out: MIC
Staphylococcus aureus [1] = assay: Antibacterial against Staphylococcus aureus ATCC 6538 after 24 hrs by NCCLS M7-A6 method; assay type: functional; details: ATCC 6538, 24 h
Staphylococcus aureus [2] = assay: Antibacterial against Staphylococcus aureus ATCC 6538P after 24 hrs by NCCLS M7-A6 method; assay type: functional
Escherichia coli = assay: Antibacterial against Escherichia coli ATCC 10536 after 24 hrs by NCCLS M7-A6 method; assay type: functional; details: ATCC 10536, 24 h
786-0 = assay: Cytotoxicity against human 786-0 cells assessed as cell growth inhibition at 10^-5 M; assay type: functional, cell-based
Cancer cell lines [3] = assay: Cytotoxicity against human lung cancer cells assessed as cell growth inhibition at 10^-5 M; assay type: functional, cell-based
Leukemia cell = assay: Cytotoxicity against human leukemia cells assessed as cell growth inhibition at 10^-5 M; assay type: functional, cell-based
Cancer cell lines [4] = assay: Cytotoxicity against human colon cancer cells assessed as cell growth inhibition at 10^-5 M; assay type: functional, cell-based
Cancer cell lines [5] = assay: Cytotoxicity against human CNS cancer cells assessed as cell growth inhibition at 10^-5 M; assay type: functional, cell-based
Melanoma cell = assay: Cytotoxicity against human melanoma cells assessed as cell growth inhibition at 10^-5 M; assay type: functional, cell-based
Cancer cell lines [6] = assay: Cytotoxicity against human ovarian cancer cells assessed as cell growth inhibition at 10^-5 M; assay type: functional, cell-based
Cancer cell lines [7] = assay: Cytotoxicity against human renal cancer cells assessed as cell growth inhibition at 10^-5 M; assay type: functional, cell-based
Cancer cell lines [8] = assay: Cytotoxicity against human prostate cancer cells assessed as cell growth inhibition at 10^-5 M; assay type: functional, cell-based
Cancer cell lines [9] = assay: Cytotoxicity against human breast cancer cells assessed as cell growth inhibition at 10^-5 M; assay type: functional, cell-based

SMILES | growth inhibition (GI) (CCRF-CEM) | growth inhibition (GI) (HOP-92) | growth inhibition (GI) (HCC 2998) | MIC (Micrococcus luteus) | MIC (Bacillus subtilis) | MIC (Bacillus cereus) | MIC (Staphylococcus aureus [1]) | MIC (Staphylococcus aureus [2]) | MIC (Escherichia coli) | growth inhibition (GI) (786-0) | growth inhibition (GI) (Cancer cell lines [3]) | growth inhibition (GI) (Leukemia cell) | growth inhibition (GI) (Cancer cell lines [4]) | growth inhibition (GI) (Cancer cell lines [5]) | growth inhibition (GI) (Melanoma cell) | growth inhibition (GI) (Cancer cell lines [6]) | growth inhibition (GI) (Cancer cell lines [7]) | growth inhibition (GI) (Cancer cell lines [8]) | growth inhibition (GI) (Cancer cell lines [9])
CC(=O)c1cc2c(C)cc(=O)oc2cc1OCCN1CCOCC1 | Active | Active | Active | 30.2 mM (≈ 10 mg/mL) | 30.2 mM (≈ 10 mg/mL) | 30.2 mM (≈ 10 mg/mL) | 30.2 mM (≈ 10 mg/mL) | 30.2 mM (≈ 10 mg/mL) | 30.2 mM (≈ 10 mg/mL) | – | – | – | – | – | – | – | – | – | –
Cc1cc(=O)oc2cc(OCCN(C(C)C)C(C)C)ccc12 | – | – | – | 7.4 mM (≈ 2.25 mg/mL) | 2.9 mM (≈ 0.88 mg/mL) | 2.9 mM (≈ 0.88 mg/mL) | 44.1 mM (≈ 13.4 mg/mL) | 44.1 mM (≈ 13.4 mg/mL) | 14.7 mM (≈ 4.46 mg/mL) | inactive | inactive | inactive | inactive | inactive | inactive | inactive | inactive | inactive | inactive
